In PMC9611449, “Hydroxy-3-Phenylcoumarins as Multitarget Compounds for Skin Aging Diseases: Synthesis, Molecular Docking and Tyrosinase, Elastase, Collagenase and Hyaluronidase Inhibition, and Sun Protection Factor” (Molecules, 2022):
Entries after “also recorded” stand apart in the source; their conditions may differ.

Legend:
[1] = tested on: mushroom tyrosinase; assay: Tyrosinase inhibition assay (L-DOPA substrate); format: biochemical
Procedure: (§1) Since the compounds were dissolved in DMSO, in the assays carried out without compounds, DMSO was added to the reaction mixture as blank control. […] Data from activity experiments were recorded using an Ultrospec 2100 spectrophotometer (Biochrom Ltd., Cambridge, UK).
The inhibition of tyrosinase was monitored by using DOPA as substrate. The reaction solution contained phosphate buffer (25 mM, pH 6.8) and mushroom tyrosinase (100 U/mL), with or without test samples.

[2] = target: mushroom tyrosinase; set-up: method as in doi:10.1039/C5RA14465E; details: data previously reported; cited from earlier work
[3] = target: porcine pancreatic elastase (Sus scrofa, UniProt P00772); assay: Elastase inhibition assay (SANA substrate); format: biochemical
Chain of porcine pancreatic elastase (P00772 27-266): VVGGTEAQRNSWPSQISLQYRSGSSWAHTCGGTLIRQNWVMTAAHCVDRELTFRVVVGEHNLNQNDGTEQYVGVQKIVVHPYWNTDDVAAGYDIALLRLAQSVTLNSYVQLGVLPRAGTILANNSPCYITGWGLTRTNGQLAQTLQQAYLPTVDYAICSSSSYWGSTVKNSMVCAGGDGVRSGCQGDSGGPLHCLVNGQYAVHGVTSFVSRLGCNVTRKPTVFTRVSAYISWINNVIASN
Procedure: as §1
The inhibition of elastase was determined by measuring the production of p-nitroaniline during the reaction of the enzyme with the N-succ-(Ala)3-nitroanilide (SANA) substrate. The assay was carried out in Tris-HCl buffer (0.1 M, pH 8.0) containing porcine pancreatic elastase (3.3 µg/mL). The reaction mixture was incubated in the presence or in the absence of the test compounds for 20 minutes and, once the substrate (1.6 mM) was added, the enzyme activity was monitored at 410 nm.

[4] = tested on: Collagenase from Clostridium histolyticum; assay: Collagenase inhibition assay (FALGPA substrate); format: biochemical
Procedure: as §1, with “Results from all the inhibition tests described below were reported as a percentage of the blank control. Since” for “Since”
Collagenase from Clostridium histolyticum (1 U/mL) was prepared in 0.05 M Tricine buffer (pH 7.5), with 0.4 M NaCl and 0.01 M CaCl2, and incubated with different concentrations of test samples for 15 minutes. After adding the N-(3-[2-Furyl]-acryloyl)-Leu-Gly-Pro-Ala (FALGPA) substrate, prepared in the same buffer solution reaching a final concentration of 0.8 mM, the absorbance was registered at 340 nm. Epigallocatechin gallate was used as a positive control.

[5] = tested on: Human skin keratinocyte cell line (HaCaT); assay: HaCaT cell viability (MTT assay); format: cell-based; details: 10–200 μM, 24 h
Procedure: Human skin keratinocyte cell line (HaCaT; CLS–Cell Lines Service, Eppelheim, Germany) was cultured in Dulbecco’s Modified Eagle’s Medium (DMEM) with 10% fetal bovine serum (FBS; Gibco, NY, USA) and 1% penicillin/streptomycin at 37 °C in a humidified atmosphere with 5% CO2. Cell viability was determined by the MTT (3-(4,5-dimethylthiazol-2-yl)-2,5-diphenyltetrazolium bromide) colorimetric assay, as previously reported. Briefly, HaCaT cells were seeded in 96-well plates and incubated with compounds at different concentrations (0–200 µM). After 24 h, cells were labelled with MTT solution for 3 h at 37 °C. DMSO was added to the formed violet formazan precipitates and the absorbance of each well was measured at 560 nm.

[6] = mean ± SD of three independent experiments

## O=c1oc2cc(O)cc(O)c2cc1-c1ccc(Br)cc1 [Compound 1, 3-(4′-Bromophenyl)-5,7-dihydroxycoumarin]
[1]; 50 μM
  Enzyme inhibition Tyrosinase: 98.3%
[1]; ratio of IC50 values
  times more active than the standard inhibitor kojic acid (tyrosinase): 17 times
[2]
  IC50: 1.05 ± 0.06 µM
other
  melting point: 273 to 275 °C
[3]; 50 μM, read-out: Enzyme inhibition Elastase
  inhibition at 50 µM: 15.6%
[3]; [6]
  IC50: > 50 µM
[4]; 100 μM
  Enzyme inhibition Collagenase: 42.6%
[4]; [6]
  IC50: 123 ± 2.2 µM
[5]
  Cytotoxicity on HaCaT cell viability: non-cytotoxic; also recorded: no toxicity
